From ChEMBL document CHEMBL1201862, “PubChem BioAssay data set” (2004)
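1) Cells in 96-well plates. 2) Compound, 48 h, 5 concentrations. 3) Linear interpolation between surrounding doses. 4) Unreached endpoint = highest concentration. Abbreviation: GI50, concentration required for 50% inhibition of growth.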 Active and inactive are the calls of the source. Rule as the data show it: active = GI50 up to about 1.1 µM and inactive = higher.

Experiments:
Assay in all cases: growth of human tumour cells (NCI), 48 h
786-0 = system: 786-0
A498 = system: A498
ACHN = system: ACHN
CCRF-CEM = system: CCRF-CEM
HCT-116 = system: HCT-116
HCT-15 = system: HCT-15
HL-60 = system: HL-60
HOP-62 = system: HOP-62
MOLT-4 = system: MOLT-4
NCI-H226 = system: NCI-H226
OVCAR-4 = system: OVCAR-4
SF-268 = system: SF-268
SF-295 = system: SF-295
SK-MEL-28 = system: SK-MEL-28
SN12C = system: SN12C
TK-10 = system: TK-10
UACC-257 = system: UACC-257
RXF 393 = system: RXF 393
UO-31 = system: UO-31

SMILES | GI50 (786-0) | GI50 (A498) | GI50 (ACHN) | GI50 (CCRF-CEM) | GI50 (HCT-116) | GI50 (HCT-15) | GI50 (HL-60) | GI50 (HOP-62) | GI50 (MOLT-4) | GI50 (NCI-H226) | GI50 (OVCAR-4) | GI50 (SF-268) | GI50 (SF-295) | GI50 (SK-MEL-28) | GI50 (SN12C) | GI50 (TK-10) | GI50 (UACC-257) | GI50 (RXF 393) | GI50 (UO-31)
CCCCn1c(C)c(C(=O)OCC)c2cc(OCc3ccc(C(=O)Nn4c(C)ccc4C)cc3)c(Br)cc21 | > 100 µM (inactive) | > 100 µM (inactive) | > 100 µM (inactive) | > 100 µM (inactive) | > 100 µM (inactive) | > 100 µM | > 100 µM (inactive) | > 100 µM (inactive) | > 100 µM (inactive) | > 100 µM (inactive) | > 100 µM (inactive) | > 100 µM (inactive) | > 100 µM (inactive) | > 100 µM (inactive) | > 100 µM (inactive) | > 100 µM (inactive) | > 100 µM (inactive) | – | –
CC(C)[C@H]1NC(=O)[C@H]2N=C(O[C@@H]2C)[C@@H]2CCCN2C(=O)[C@H](Cc2ccccc2)NC(=O)[C@@H]2COC(=N2)[C@@H](Cc2ccccc2)NC(=O)[C@@H]2COC1=N2 | > 100 µM (inactive) | – | > 100 µM (inactive) | > 100 µM (inactive) | > 100 µM (inactive) | > 100 µM | > 100 µM (inactive) | > 100 µM (inactive) | > 100 µM (inactive) | > 100 µM (inactive) | > 100 µM (inactive) | > 100 µM (inactive) | > 100 µM (inactive) | > 100 µM (inactive) | > 100 µM (inactive) | > 100 µM (inactive) | > 100 µM (inactive) | > 100 µM (inactive) | > 100 µM (inactive)
N#Cc1nc(-c2cccc(-c3nc(C#N)c(N)o3)n2)oc1N | > 100 µM (inactive) | > 100 µM (inactive) | > 100 µM (inactive) | 21.2 µM (inactive) | > 100 µM (inactive) | > 100 µM | 64.7 µM (inactive) | > 100 µM (inactive) | > 100 µM (inactive) | > 100 µM (inactive) | > 100 µM (inactive) | > 100 µM (inactive) | > 100 µM (inactive) | > 100 µM (inactive) | > 100 µM (inactive) | > 100 µM (inactive) | > 100 µM (inactive) | – | > 100 µM (inactive)
O=C(N/N=C(\c1ccccc1)c1ccccn1)NC1CCCCC1 | 63.5 µM (inactive) | – | 44.6 µM (inactive) | 40.8 µM (inactive) | 55.6 µM (inactive) | 22.9 µM | – | 23.4 µM (inactive) | 41.1 µM (inactive) | 41.1 µM (inactive) | 22.7 µM (inactive) | 37.2 µM (inactive) | 26.6 µM (inactive) | > 100 µM (inactive) | 56.5 µM (inactive) | 26.9 µM (inactive) | > 100 µM (inactive) | – | 43.5 µM (inactive)
COc1cccc(C(C#N)NC23CC4CC(CC(C4)C2)C3)c1 (configuration not stated) | > 100 µM (inactive) | – | > 100 µM (inactive) | > 100 µM (inactive) | > 100 µM (inactive) | > 100 µM | > 100 µM (inactive) | > 100 µM (inactive) | > 100 µM (inactive) | > 100 µM (inactive) | > 100 µM (inactive) | > 100 µM (inactive) | > 100 µM (inactive) | > 100 µM (inactive) | > 100 µM (inactive) | > 100 µM (inactive) | > 100 µM (inactive) | > 100 µM (inactive) | > 100 µM (inactive)
COc1cc2c(cc1OC)[C@@H]1[C@H](C#N)C(=O)C(C)(C)N1CC2 | > 100 µM (inactive) | > 100 µM (inactive) | > 100 µM (inactive) | > 100 µM (inactive) | > 100 µM (inactive) | > 100 µM | 23.6 µM (inactive) | – | > 100 µM (inactive) | > 100 µM (inactive) | > 100 µM (inactive) | – | > 100 µM (inactive) | > 100 µM (inactive) | > 100 µM (inactive) | > 100 µM (inactive) | > 100 µM (inactive) | – | > 100 µM (inactive)
CCOC(=O)N/N=C(/N)Cc1ccc(Cl)cc1 | > 100 µM (inactive) | – | > 100 µM (inactive) | > 100 µM (inactive) | > 100 µM (inactive) | > 100 µM | – | > 100 µM (inactive) | > 100 µM (inactive) | – | > 100 µM (inactive) | > 100 µM (inactive) | > 100 µM (inactive) | > 100 µM (inactive) | > 100 µM (inactive) | > 100 µM (inactive) | > 100 µM (inactive) | > 100 µM (inactive) | > 100 µM (inactive)
Cc1cccc2c(=O)c3cccc([C@H](C)C(=O)O)c3oc12 | > 100 µM (inactive) | > 100 µM (inactive) | > 100 µM (inactive) | > 100 µM (inactive) | > 100 µM (inactive) | > 100 µM | > 100 µM (inactive) | > 100 µM (inactive) | > 100 µM (inactive) | > 100 µM (inactive) | > 100 µM (inactive) | > 100 µM (inactive) | > 100 µM (inactive) | > 100 µM (inactive) | > 100 µM (inactive) | > 100 µM (inactive) | > 100 µM (inactive) | – | > 100 µM (inactive)
